Consider 17 compounds from PubChem BioAssay AID200 (DTP/NCI, 2004).

Values joined by “and” are separate entries in the source; they are usually repeats but may differ in a detail not shown here. Equal values may be shown once. Inconclusive results and toxic doses are left out. Where a SMILES comes first, the peptide text is derived from it. [ ]: non-standard residue; d: D form. The star is where a group is joined. Cbz = O=C(OCc1ccccc1)*; Nva = CCC[CH](N)C(=O)O

The subject of the assay is B6C3F1 mice, B16 melanoma ip, median survival T/C. The assay can be described thus: NCI In Vivo Anticancer Drug Screen. Data for tumor model B16 Melanoma (intraperitoneal) in B6C3F1 mice. The following applies: endpoint: median survival time, higher = longer survival. Put shortly: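 Values are T/C ratios: the measurement in treated animals divided by that in vehicle-treated controls, using survival or tumor size in mice carrying transplantable tumors.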

The mark [1] stands for this setting: dose: 12.5 mg/kg/injection, schedule: Q01DX009 (ip), vehicle: saline with Tween-80.
[2] abbreviates: dose: 12.5 mg/kg/injection, schedule: Q01DX009 (ip), vehicle: Klucel (hydroxypropylcellulose) (HPC).
Setting [3] is: dose: 25.0 mg/kg/injection, schedule: Q01DX009 (ip), vehicle: Klucel (hydroxypropylcellulose) (HPC).
Where [4] appears, read: dose: 200.0 mg/kg/injection, schedule: Q01DX009 (ip), vehicle: saline.
[5] abbreviates: dose: 25.0 mg/kg/injection, schedule: Q01DX009 (ip), vehicle: saline with Tween-80.
Where [6] appears, read: dose: 50.0 mg/kg/injection, schedule: Q01DX009 (ip), vehicle: saline with Tween-80.
The mark [7] stands for this setting: dose: 100.0 mg/kg/injection, schedule: Q01DX009 (ip), vehicle: saline with Tween-80.
Where [8] appears, read: dose: 100.0 mg/kg/injection, schedule: Q01DX009 (ip), vehicle: Klucel (hydroxypropylcellulose) (HPC).
Where [9] appears, read: dose: 200.0 mg/kg/injection, schedule: Q01DX009 (ip), vehicle: Klucel (hydroxypropylcellulose) (HPC).
Setting [10] is: dose: 12.5 mg/kg/injection, schedule: Q01DX009 (ip), vehicle: saline.

For the compound `COc1cccc(Sc2ccc([N+](=O)[O-])c3no[n+]([O-])c23)c1`, the T/C runs as follows: (dose: 1.85 mg/kg/injection, schedule: Q01DX009 (ip), vehicle: saline with Tween-80) 111 % of control and 93 % of control; (dose: 3.75 mg/kg/injection, schedule: Q01DX009 (ip), vehicle: saline with Tween-80) 94 % of control and 101 % of control; (dose: 7.5 mg/kg/injection, schedule: Q01DX009 (ip), vehicle: saline with Tween-80) 92 % of control and 99 % of control; (dose: 15.0 mg/kg/injection, schedule: Q01DX009 (ip), vehicle: saline with Tween-80) 88 % of control and 91 % of control; (dose: 30.0 mg/kg/injection, schedule: Q01DX009 (ip), vehicle: saline with Tween-80) 88 % of control and 89 % of control and 95 % of control; (dose: 60.0 mg/kg/injection, schedule: Q01DX009 (ip), vehicle: saline with Tween-80) 91 % of control.

For `Cc1cc(N=NC(N)=S)c2ccccc2c1O`, the T/C is 94 % of control (dose: 3.13 mg/kg/injection, schedule: Q01DX009 (ip), vehicle: saline with Tween-80); 86 % of control (dose: 6.25 mg/kg/injection, schedule: Q01DX009 (ip), vehicle: saline with Tween-80); 87 % of control under setting [1].

For the compound `CC(=O)c1ccc([NH-])c([NH-])c1.[Cl][Pt+2][Cl]`, the T/C was 116 % of control (dose: 2.5 mg/kg/injection, schedule: Q01DX009 (ip), vehicle: distilled water + Tween-80); 116 % of control (dose: 5.0 mg/kg/injection, schedule: Q01DX009 (ip), vehicle: distilled water + Tween-80); 114 % of control and 124 % of control (dose: 10.0 mg/kg/injection, schedule: Q01DX009 (ip), vehicle: distilled water + Tween-80); 114 % of control (dose: 20.0 mg/kg/injection, schedule: Q01DX009 (ip), vehicle: distilled water + Tween-80); 119 % of control (dose: 40.0 mg/kg/injection, schedule: Q01DX009 (ip), vehicle: distilled water + Tween-80).

For `CCNC(=O)[B-][N+](C)(C)C`, the T/C under setting [2] was 93 % of control and the T/C under setting [3] is 95 % of control.

As to `NCC(=O)NC(Cc1ccc(O)cc1)C(=O)O` (stereo not drawn) (HELM PEPTIDE1{G.[O=C(O)C(Cc1ccc(O)cc1)N[*:1]]}$$$$V2.0), the T/C by setting is: (dose: 100.0 mg/kg/injection, schedule: Q01DX009 (ip), vehicle: saline) 110 % of control; under setting [4], 123 % of control.

In the case of `N#CN=[N+]([O-])c1ccc(C(=O)O)cc1`, the T/C was 99 % of control and 101 % of control (dose: 1.87 mg/kg/injection, schedule: Q01DX009 (ip), vehicle: Klucel (hydroxypropylcellulose) (HPC)); 96 % of control and 105 % of control (dose: 3.75 mg/kg/injection, schedule: Q01DX009 (ip), vehicle: Klucel (hydroxypropylcellulose) (HPC)); 95 % of control and 102 % of control (dose: 7.5 mg/kg/injection, schedule: Q01DX009 (ip), vehicle: Klucel (hydroxypropylcellulose) (HPC)); 89 % of control and 91 % of control (dose: 15.0 mg/kg/injection, schedule: Q01DX009 (ip), vehicle: Klucel (hydroxypropylcellulose) (HPC)); 90 % of control and 97 % of control (dose: 30.0 mg/kg/injection, schedule: Q01DX009 (ip), vehicle: Klucel (hydroxypropylcellulose) (HPC)).

With `CN=C(N)N/N=C(\C)c1ccc2c(c1)Cc1ccccc1-2`, the T/C by setting is: under setting [1], 111 % of control; under setting [5], 118 % of control; under setting [6], 119 % of control; under setting [7], 122 % of control.

As for `COC(=O)c1ccc(O)cc1`, the T/C is 92 % of control under setting [1]; 103 % of control under setting [5]; 106 % of control under setting [6]; 117 % of control under setting [7]; 101 % of control (dose: 200.0 mg/kg/injection, schedule: Q01DX009 (ip), vehicle: saline with Tween-80); 96 % of control (dose: 400.0 mg/kg/injection, schedule: Q01DX009 (ip), vehicle: saline with Tween-80).

In the case of `CCCC(NC(=O)OCc1ccccc1)C(=O)NC(CCSC)C(=O)O` (stereo not drawn) (Cbz-[Nva]-Met-OH; configuration not given here), the T/C under setting [8] was 100 % of control; the T/C under setting [9] is 104 % of control; the T/C (dose: 400.0 mg/kg/injection, schedule: Q01DX009 (ip), vehicle: Klucel (hydroxypropylcellulose) (HPC)) is 96 % of control.

For the compound `Oc1cccc2ccccc12`, the T/C is, setting by setting: (dose: 25.0 mg/kg/injection, schedule: Q01DX009 (sc), vehicle: other) 97 % of control; (dose: 50.0 mg/kg/injection, schedule: Q01DX009 (sc), vehicle: other) 94 % of control; (dose: 100.0 mg/kg/injection, schedule: Q01DX009 (sc), vehicle: other) 100 % of control; (dose: 200.0 mg/kg/injection, schedule: Q01DX009 (sc), vehicle: other) 92 % of control.

Turning to `Cc1cc(O)c2c(c1O)C(=O)C13C(=C2O)C(=O)C2C(O)C1C1C(O)C3C(=O)C3=C(O)c4c(O)cc(C)c(O)c4C(=O)C321` (stereo not drawn), the T/C is 109 % of control (dose: 0.19 mg/kg/injection, schedule: Q01DX009 (ip), vehicle: saline with Tween-80); 124 % of control (dose: 0.2 mg/kg/injection, schedule: Q01DX009 (ip), vehicle: saline with Tween-80); 114 % of control and 106 % of control (dose: 0.39 mg/kg/injection, schedule: Q01DX009 (ip), vehicle: saline with Tween-80); 117 % of control (dose: 0.78 mg/kg/injection, schedule: Q01DX009 (ip), vehicle: saline with Tween-80); 117 % of control (dose: 1.56 mg/kg/injection, schedule: Q01DX009 (ip), vehicle: saline with Tween-80).

With `COC(CCC(C)C1OC23CC(OC(=O)CC(C(C)O)OC(=O)CC(O)(O2)C(C)CC3(C)C)C1C)c1cccc(O)c1` (stereo not drawn), the T/C reads like this: (dose: 12.5 micrograms/kg/injection, schedule: Q01DX009 (ip), vehicle: saline + Tween-80 + alcohol) 96 % of control; (dose: 25.0 micrograms/kg/injection, schedule: Q01DX009 (ip), vehicle: saline + Tween-80 + alcohol) 97 % of control; (dose: 50.0 micrograms/kg/injection, schedule: Q01DX009 (ip), vehicle: saline + Tween-80 + alcohol) 104 % of control; (dose: 100.0 micrograms/kg/injection, schedule: Q01DX009 (ip), vehicle: saline + Tween-80 + alcohol) 102 % of control.

For the compound `CC(C)(C)OC(=O)NC(CCCCNC(=O)OCc1ccccc1)C(=O)O` (stereo not drawn), the T/C runs as follows: (dose: 25.0 mg/kg/injection, schedule: Q01DX009 (ip), vehicle: distilled water + Tween-80 + alcohol) 111 % of control; (dose: 50.0 mg/kg/injection, schedule: Q01DX009 (ip), vehicle: distilled water + Tween-80 + alcohol) 96 % of control.

In the case of `O=C1N(CC2CO2)CCN1CC1CO1` (stereo not drawn), the T/C was 117 % of control and 97 % of control under setting [10]; 114 % of control (dose: 12.5 mg/kg/injection, schedule: Q01DX009 (ip), vehicle: suspension in saline); 118 % of control and 107 % of control (dose: 25.0 mg/kg/injection, schedule: Q01DX009 (ip), vehicle: saline); 124 % of control (dose: 25.0 mg/kg/injection, schedule: Q01DX009 (ip), vehicle: suspension in saline); 115 % of control (dose: 50.0 mg/kg/injection, schedule: Q01DX009 (ip), vehicle: saline); 165 % of control (dose: 50.0 mg/kg/injection, schedule: Q01DX009 (ip), vehicle: suspension in saline). The T/C (dose: 100.0 mg/kg/injection, schedule: Q01DX009 (ip), vehicle: suspension in saline) was 90 % of control and the T/C under setting [4] is 122 % of control.

Regarding `C[CH2][Sn]([CH2]C)([O]S(C)(=O)=O)[O]S(C)(=O)=O`, the T/C is, setting by setting: (dose: 0.78 mg/kg/injection, schedule: Q01DX009 (ip), vehicle: saline) 92 % of control; (dose: 0.79 mg/kg/injection, schedule: Q01DX009 (ip), vehicle: saline) 102 % of control; (dose: 1.56 mg/kg/injection, schedule: Q01DX009 (ip), vehicle: saline) 98 % of control and 103 % of control; (dose: 3.12 mg/kg/injection, schedule: Q01DX009 (ip), vehicle: saline) 97 % of control and 103 % of control; (dose: 6.25 mg/kg/injection, schedule: Q01DX009 (ip), vehicle: saline) 108 % of control and 96 % of control; under setting [10], 91 % of control and 99 % of control.

Regarding `O=C(O)c1cc(Cc2ccc(O)c(C(=O)O)c2)ccc1O` (tested in a mixture with another compound), the T/C (dose: 6.25 mg/kg/injection, schedule: Q01DX009 (ip), vehicle: Klucel (hydroxypropylcellulose) (HPC)) was 101 % of control; the T/C under setting [2] is 105 % of control; the T/C under setting [3] was 103 % of control; the T/C (dose: 50.0 mg/kg/injection, schedule: Q01DX009 (ip), vehicle: Klucel (hydroxypropylcellulose) (HPC)) is 94 % of control; the T/C under setting [8] is 90 % of control; the T/C under setting [9] is 93 % of control.

Turning to `Cc1ccc(C)c2c1CCC2C` (stereo not drawn), the T/C was 93 % of control under setting [6] and 86 % of control under setting [7].
